# Read-outs that look alike come from different tables or passages of the source.
# Tested on: 786-O (renal cell carcinoma) cells
# Assay: Cell viability (CellTiter Glo) assay, inhibition of 786-O cell proliferation
# Format: cell-based
# Details: read-out: IC50, inhibition of 786-O cell proliferation
# [1] = Homo sapiens, 786-0, 786-O cells, 72 hours, CellTiter Glo
SMILES,IC50 [1] [nM],also measured
CNc1nc(COC(=N)N2CCC[C@H]2C(F)(F)F)nc2c1C1(CCCC1)C(=O)N2c1cnc(N2C[C@@H](C)O[C@@H](C)C2)nc1 (relative stereo) [Compound E103],100 to 500,
CCCC[C@H]1Cc2cc(OC)ccc2[C@H](c2ccc(F)cc2)N1C(=O)CO/C(=N\CCCN(C)C)NCC [Compound A3],> 5000,
CCCC[C@H]1Cc2cc(OC)ccc2[C@H](c2ccc(F)cc2)N1C(=O)CO/C(=N\C(C)C)NC(C)C [Compound A4],500 to 5000,
CCCCC1Cc2c([nH]c3ccccc23)C(c2ccc(NC34CC5CC(CC(C5)C3)C4)cc2)N1C(=O)CO/C(=N\C(C)C)NC(C)C (centres unmarked) [Compound B1],> 5000,
CCCCC1Cc2c([nH]c3ccccc23)C(c2ccc(F)cc2)N1C(=O)COC(=N)N1CCN(CC)C(=O)C12CC2 (centres unmarked) [Compound B2],500 to 5000,
N=C(OCc1ncc2c(n1)N(c1ccc(Oc3ccccc3)cc1)C(=O)CC2)N1CCC(F)(F)CC1 [Compound C1],> 5000,
CN(C)C(=N)OCc1nc(NC2CCCCC2)c2cc[nH]c2n1 [Compound D9],,"IC50 (Homo sapiens, 786-0, 72 h): 500 to 5000 nM"
CN(C)C(=N)OCc1ncc2c(n1)c(-c1ccc(Oc3ccccc3)cc1)nn2C [Compound D11],,"IC50 (Homo sapiens, 786-0, 72 h): 500 to 5000 nM"
CC1(C)CN(c2ccc(Oc3ccccc3)cc2)c2nc(COC(=N)NC34CC5CC(CC(C5)C3)C4)nc(N)c21 [Compound E3],100 to 500,
COc1ccc(CNc2nc(COC(=N)N3CCC(F)(F)CC3)nc3c2C(C)(C)CN3c2ccc(Oc3ccccc3)cc2)cc1 [Compound E6],100 to 500,
CC1(C)CN(c2ccc(Oc3ccccc3)cc2)c2nc(COC(=N)N3CCCC34COC4)ncc21 [Compound E11],500 to 5000,
N=C(OCc1ncc2c(n1)N(c1ccc(Oc3ccccc3)cc1)C(=O)C21CC1)N1CCCCC1C(F)(F)F (centres unmarked) [Compound E12],100 to 500,
CC(C)N(CC(F)(F)F)C(=N)OCc1ncc2c(n1)N(c1ccc(OC3CCCCC3)nc1)C(=O)C21CC1 [Compound E13],100 to 500,
COc1cc(N2CCOCC2)ccc1N1CC(C)(C)c2c(OCC(F)(F)F)nc(COC(=N)N3CCC[C@@H]3C(F)(F)F)nc21 [Compound E17],,"IC50 (Homo sapiens, 786-0, 72 h): < 100 nM"
CC#CC(C)(C)N(C)C(=N)OCc1nc(N)c2c(n1)N(c1ccc(N3CCOCC3)cc1)C(=O)C2(C)C [Compound E27],500 to 5000,
CNc1nc(COC(=N)N2CCCC2C(F)(F)F)nc2c1C(C)(C)C(=O)N2c1ccccc1Oc1ccccc1F (centres unmarked) [Compound E29],,"IC50 (Homo sapiens, 786-0, 72 h): < 100 nM"
CNc1nc(COC(=N)N2CCC[C@@H]2C(F)(F)F)nc2c1C(C)(C)C(=O)N2c1cc(F)c2c(c1)nc(C)n2C(C)C [Compound E32],,"IC50 (786-O cells, 72 hours, CellTiter Glo): < 100 nM"
CNc1nc(COC(=N)N2CC(F)(F)C[C@@H]2C)nc2c1C(C)(C)C(=O)N2c1ccc(N2CCOCC2)cc1 [Compound E41],100 to 500,
CNc1nc(COC(=N)N2CC(F)(F)C[C@H]2C)nc2c1C(C)(C)C(=O)N2c1ccc(N2CCOCC2)cc1 [Compound E42],100 to 500,
C[C@@H]1CN(c2ccc(N3C(=O)C4(CCCCC4)c4c(N)nc(COC(=N)N5CCC[C@@H]5C(F)(F)F)nc43)cn2)C[C@H](C)O1 [Compound E45],< 100,
C[C@@H]1CN(c2ccc(N3C(=O)C4(CCCC4)c4c(N)nc(COC(=N)N5CCC[C@@H]5C(F)(F)F)nc43)cn2)C[C@H](C)O1 [Compound E46],,"IC50 (Homo sapiens, 786-0, 72 h): < 100 nM"
COc1cc(N2C[C@@H](C)O[C@@H](C)C2)ncc1N1C(=O)C(C)(C)c2c(N)nc(COC(=N)N3CCC[C@@H]3C(F)(F)F)nc21 [Compound E47],100 to 500,
CC1(C)C(=O)N(c2ccc(N3CCOCC3)cc2)c2nc(COC(=N)N3CCC[C@@H]3C(F)(F)F)nc(NCC(F)(F)F)c21 [Compound E48],< 100,

# Now from value to compound, other results behind:
IC50 [1] [nM],SMILES,also measured
< 100,"CNc1nc(COC(=N)N2CCC(F)(F)CC2)nc2c1C(C)(C)CN2c1ccc(Oc2ccccc2)cc1 [Compound E7, (5,5-dimethyl-4-(methylamino)-7-(4-phenoxyphenyl)-6,7-dihydro-5H-pyrrolo[2,3-d]pyrimidin-2-yl)methyl 4,4-difluoropiperidine-1-carbimidate]",
< 100,CCN(CC(F)(F)F)C(=N)OCc1ncc2c(n1)N(c1ccc(Oc3ccccc3)cc1)CC2(C)C [Compound E9],
< 100,CC1(C)CN(c2ccc(Oc3ccccc3)cc2)c2nc(COC(=N)N3CCCCC3C(F)(F)F)ncc21 (centres unmarked) [Compound E10],
< 100,CNc1nc(COC(=N)N2CCCC2C(F)(F)F)nc2c1C(C)(C)CN2c1ccc(N2CCOCC2)cc1OC (centres unmarked) [Compound E15],
< 100,COc1cc(N2CCOCC2)ccc1N1CC(C)(C)c2c(NCC(F)(F)F)nc(COC(=N)N3CCC[C@@H]3C(F)(F)F)nc21 [Compound E16],
< 100,CC1(C)CN(c2ccc(N3CCOCC3)cc2)c2nc(COC(=N)N3CCCC3C(F)(F)F)nc(N)c21 (centres unmarked) [Compound E18],
< 100,CNc1nc(COC(=N)N2CCC[C@@H]2C(F)(F)F)nc2c1C(C)(C)CN2c1ccc(N2C[C@@H](C)O[C@@H](C)C2)nc1 [Compound E19],
< 100,C[C@@H]1CN(c2ccc(N3CC(C)(C)c4c(N)nc(COC(=N)N5CCC[C@@H]5C(F)(F)F)nc43)cn2)C[C@H](C)O1 [Compound E20],
< 100,C[C@@H]1CN(c2ccc(N3CC4(CCC4)c4c(NCC(F)(F)F)nc(COC(=N)N5CCC[C@@H]5C(F)(F)F)nc43)cn2)C[C@H](C)O1 [Compound E21],
< 100,CNc1nc(COC(=N)N2CCCC2C(F)(F)F)nc2c1C(C)(C)C(=O)N2c1ccc(N2CCC(F)(F)CC2)nc1 (centres unmarked) [Compound E22],
< 100,CNc1nc(COC(=N)N2CCCC2C(F)(F)F)nc2c1C(C)(C)C(=O)N2c1ccc(N2C[C@@H](C)O[C@@H](C)C2)cc1 (some centres unmarked) [Compound E23],
< 100,CNc1nc(COC(=N)N2CCC[C@@H]2C(F)(F)F)nc2c1C(C)(C)C(=O)N2c1cc(F)c2c(cnn2C(C)C)c1 [Compound E31],
< 100,C[C@@H]1CN(c2ccc(N3C(=O)C4(CCC4)c4c(N)nc(COC(=N)N5CCC[C@@H]5C(F)(F)F)nc43)cn2)C[C@H](C)O1 [Compound E33],
< 100,C[C@@H]1C[C@H](C)CN(c2ncc(N3C(=O)C(C)(C)c4c(N)nc(COC(=N)N5CCC[C@@H]5C(F)(F)F)nc43)cc2F)C1 [Compound E34],
< 100,C[C@@H]1C[C@H](C)CN(c2ccc(N3C(=O)C(C)(C)c4c(N)nc(COC(=N)N5CCC[C@@H]5C(F)(F)F)nc43)cc2F)C1 [Compound E35],
< 100,CNc1nc(COC(=N)N2CCC[C@@H]2C(F)(F)F)nc2c1C(C)(C)C(=O)N2c1cnc(N2C[C@@H](C)O[C@@H](C)C2)c(F)c1 [Compound E36],
< 100,C[C@@H]1CN(c2ncc(N3C(=O)C(C)(C)c4c(N)nc(COC(=N)N5CCC[C@@H]5C(F)(F)F)nc43)cc2F)C[C@H](C)O1 [Compound E37],
< 100,C[C@@H]1CN(c2ccc(N3C(=O)C(C)(C)c4c(NCC(F)(F)F)nc(COC(=N)N5CCC[C@@H]5C(F)(F)F)nc43)cn2)C[C@H](C)O1 [Compound E38],
< 100,CNc1nc(COC(=N)N2CCC[C@@H]2C(F)(F)F)nc2c1C(C)(C)C(=O)N2c1ccc(N2C[C@H](C)C[C@H](C)C2)c(F)c1 [Compound E39],
< 100,C[C@@H]1C[C@H](C)CN(c2ccc(N3C(=O)C(C)(C)c4c(NCC(F)(F)F)nc(COC(=N)N5CCC[C@@H]5C(F)(F)F)nc43)cc2F)C1 [Compound E43],
< 100,C[C@@H]1CN(c2ccc(N3C(=O)C4(CCCC4)c4c(NCC(F)(F)F)nc(COC(=N)N5CCC[C@@H]5C(F)(F)F)nc43)cn2)C[C@H](C)O1 [Compound E44],
